Laboratory results as given in PubChem BioAssay (NCI).
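Test compounds were applied to cells in 96-well plates for 48 hours at 5 doses. The concentration for full growth arrest is given as TGI.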

Key:
Assay in all cases: NCI anticancer screen, dose series, 48 h
HS 578T breast = test system: HS 578T breast
UACC-257 melanoma = test system: UACC-257 melanoma
A498 renal = test system: A498 renal
HOP-92 NSCLC = test system: HOP-92 NSCLC
EKVX NSCLC = test system: EKVX NSCLC
IGROV1 ovarian = test system: IGROV1 ovarian
PC-3 prostate = test system: PC-3 prostate
CAKI-1 renal = test system: CAKI-1 renal
RXF 393 renal = test system: RXF 393 renal
SNB-75 CNS = test system: SNB-75 CNS
SF-295 CNS = test system: SF-295 CNS
K-562 leukemia = test system: K-562 leukemia
HCC-2998 colon = test system: HCC-2998 colon
HL-60(TB) leukemia = test system: HL-60(TB) leukemia
MDA-N = test system: MDA-N
RPMI-8226 leukemia = test system: RPMI-8226 leukemia
COLO 205 colon = test system: COLO 205 colon
MOLT-4 leukemia = test system: MOLT-4 leukemia
SN12C renal = test system: SN12C renal
SK-MEL-5 melanoma = test system: SK-MEL-5 melanoma
TK-10 renal = test system: TK-10 renal
DU-145 prostate = test system: DU-145 prostate
SR leukemia = test system: SR leukemia
HCT-116 colon = test system: HCT-116 colon
SF-539 CNS = test system: SF-539 CNS
OVCAR-4 ovarian = test system: OVCAR-4 ovarian
NCI-H522 lung = test system: NCI-H522 lung
KM12 colon = test system: KM12 colon
NCI-H23 lung = test system: NCI-H23 lung
BT-549 breast = test system: BT-549 breast
CCRF-CEM leukemia = test system: CCRF-CEM leukemia
OVCAR-3 ovarian = test system: OVCAR-3 ovarian
LOX IMVI melanoma = test system: LOX IMVI melanoma
UO-31 renal = test system: UO-31 renal
OVCAR-8 ovarian = test system: OVCAR-8 ovarian
U251 CNS = test system: U251 CNS
SK-OV-3 ovarian = test system: SK-OV-3 ovarian
NCI-H226 lung = test system: NCI-H226 lung
M14 melanoma = test system: M14 melanoma
MCF7 breast = test system: MCF7 breast
HCT-15 colon = test system: HCT-15 colon
HOP-62 NSCLC = test system: HOP-62 NSCLC
A549 NSCLC = test system: A549 NSCLC
SW-620 colon = test system: SW-620 colon
MDA-MB-231 breast = test system: MDA-MB-231 breast
HT29 colon = test system: HT29 colon
MDA-MB-435 = test system: MDA-MB-435
NCI/ADR-RES ovarian = test system: NCI/ADR-RES ovarian
UACC-62 melanoma = test system: UACC-62 melanoma
786-0 renal = test system: 786-0 renal
ACHN renal = test system: ACHN renal
NCI-H460 lung = test system: NCI-H460 lung
OVCAR-5 ovarian = test system: OVCAR-5 ovarian
SK-MEL-2 melanoma = test system: SK-MEL-2 melanoma
MALME-3M melanoma = test system: MALME-3M melanoma
SNB-19 CNS = test system: SNB-19 CNS
T-47D breast = test system: T-47D breast
SK-MEL-28 melanoma = test system: SK-MEL-28 melanoma
SF-268 CNS = test system: SF-268 CNS

Nc1cc2c3c(c1)Oc1cc(N)cc4c1C3c1c(cc(N)cc1O4)O2
TGI (HS 578T breast): > 100 µM | TGI (UACC-257 melanoma): > 85.1 µM | TGI (A498 renal): > 100 µM | TGI (HOP-92 NSCLC): > 100 µM | TGI (EKVX NSCLC): > 47.7 µM | TGI (IGROV1 ovarian): > 44.9 µM | TGI (PC-3 prostate): 98.3 µM | TGI (CAKI-1 renal): 36.1 µM | TGI (RXF 393 renal): 29 µM | TGI (SNB-75 CNS): > 48.8 µM | TGI (SF-295 CNS): > 96.6 µM | TGI (K-562 leukemia): > 100 µM | TGI (HCC-2998 colon): > 100 µM | TGI (HL-60(TB) leukemia): 52.6 µM | TGI (MDA-N): 59.5 µM | TGI (RPMI-8226 leukemia): 52.2 µM | TGI (COLO 205 colon): 34.3 µM | TGI (MOLT-4 leukemia): > 100 µM | TGI (SN12C renal): 49.2 µM | TGI (SK-MEL-5 melanoma): 27.3 µM | TGI (TK-10 renal): > 100 µM | TGI (DU-145 prostate): 46.7 µM | TGI (SR leukemia): 50 µM | TGI (HCT-116 colon): 75.5 µM | TGI (SF-539 CNS): 46.2 µM | TGI (OVCAR-4 ovarian): > 100 µM | TGI (NCI-H522 lung): 45.5 µM | TGI (KM12 colon): > 84.2 µM | TGI (NCI-H23 lung): > 66.5 µM | TGI (BT-549 breast): 51.3 µM | TGI (CCRF-CEM leukemia): 81.5 µM | TGI (OVCAR-3 ovarian): 51.6 µM | TGI (LOX IMVI melanoma): 41.6 µM | TGI (UO-31 renal): > 100 µM | TGI (OVCAR-8 ovarian): 34 µM | TGI (U251 CNS): > 100 µM | TGI (SK-OV-3 ovarian): > 100 µM | TGI (NCI-H226 lung): 12.8 µM | TGI (M14 melanoma): > 100 µM | TGI (MCF7 breast): > 60 µM | TGI (HCT-15 colon): > 31.6 µM | TGI (HOP-62 NSCLC): > 88.1 µM | TGI (A549 NSCLC): > 100 µM | TGI (SW-620 colon): > 100 µM | TGI (MDA-MB-231 breast): 53.8 µM | TGI (HT29 colon): > 63.1 µM | TGI (MDA-MB-435): > 86.9 µM | TGI (NCI/ADR-RES ovarian): 26.9 µM | TGI (UACC-62 melanoma): > 69.6 µM | TGI (786-0 renal): > 86.5 µM | TGI (ACHN renal): > 51.3 µM | TGI (NCI-H460 lung): > 100 µM | TGI (OVCAR-5 ovarian): > 100 µM | TGI (SK-MEL-2 melanoma): > 81.9 µM | TGI (MALME-3M melanoma): 22.8 µM | TGI (SNB-19 CNS): > 100 µM | TGI (T-47D breast): > 93.2 µM | TGI (SK-MEL-28 melanoma): > 100 µM | TGI (SF-268 CNS): 25 µM

COc1ccccc1/C=C/C1=NN(c2cccc(S(=O)(=O)O)c2)C2(C1)SCC(=O)N2c1nc2ccccc2s1 (centres undefined)
TGI (HS 578T breast): > 100 µM | TGI (UACC-257 melanoma): > 100 µM | TGI (A498 renal): > 100 µM | TGI (HOP-92 NSCLC): > 100 µM | TGI (EKVX NSCLC): > 100 µM | TGI (IGROV1 ovarian): > 100 µM | TGI (PC-3 prostate): > 100 µM | TGI (CAKI-1 renal): > 100 µM | TGI (RXF 393 renal): > 100 µM | TGI (SNB-75 CNS): > 100 µM | TGI (K-562 leukemia): > 100 µM | TGI (HCC-2998 colon): > 100 µM | TGI (HL-60(TB) leukemia): > 100 µM | TGI (MDA-N): > 100 µM | TGI (RPMI-8226 leukemia): 65.4 µM | TGI (COLO 205 colon): > 100 µM | TGI (MOLT-4 leukemia): > 100 µM | TGI (SN12C renal): > 100 µM | TGI (SK-MEL-5 melanoma): > 100 µM | TGI (TK-10 renal): > 100 µM | TGI (DU-145 prostate): > 100 µM | TGI (SR leukemia): 87.9 µM | TGI (HCT-116 colon): > 100 µM | TGI (SF-539 CNS): > 100 µM | TGI (OVCAR-4 ovarian): > 100 µM | TGI (NCI-H522 lung): > 100 µM | TGI (KM12 colon): > 100 µM | TGI (NCI-H23 lung): > 100 µM | TGI (BT-549 breast): > 100 µM | TGI (CCRF-CEM leukemia): 90 µM | TGI (LOX IMVI melanoma): > 100 µM | TGI (UO-31 renal): > 100 µM | TGI (OVCAR-8 ovarian): > 100 µM | TGI (U251 CNS): > 100 µM | TGI (NCI-H226 lung): > 100 µM | TGI (M14 melanoma): > 100 µM | TGI (MCF7 breast): > 100 µM | TGI (HCT-15 colon): > 100 µM | TGI (A549 NSCLC): > 100 µM | TGI (SW-620 colon): > 100 µM | TGI (MDA-MB-231 breast): > 100 µM | TGI (HT29 colon): > 100 µM | TGI (MDA-MB-435): > 100 µM | TGI (NCI/ADR-RES ovarian): > 100 µM | TGI (UACC-62 melanoma): > 100 µM | TGI (786-0 renal): > 100 µM | TGI (ACHN renal): > 100 µM | TGI (NCI-H460 lung): > 100 µM | TGI (OVCAR-5 ovarian): > 100 µM | TGI (SK-MEL-2 melanoma): > 100 µM | TGI (MALME-3M melanoma): > 100 µM | TGI (SNB-19 CNS): > 100 µM | TGI (T-47D breast): 71.8 µM | TGI (SK-MEL-28 melanoma): > 100 µM | TGI (SF-268 CNS): > 100 µM
